Where a name gives a salt, the structure may show the parent alone.
Key:
[1] = test system: Sendai virus (SeV); format: cell-based; for Score (number of EGFP-positive cells, value subjected to correction between batches): test concentration or dose not given here
[2] = test system: SARS-CoV-2; assay: microbe, parasite or virus in culture; format: cell-based; conditions: for IC50: Severe acute respiratory syndrome coronavirus 2, Vero C1008, read-out: IC50, infection rate of SARS-CoV-2
[3] = test system: Sendai virus (SeV); assay: microbe, parasite or virus in culture; format: cell-based; conditions: for IC50: Respirovirus muris, read-out: IC50, infection rate of SeV
[4] = test system: Ebola trVLP
[5] = test system: Ebola trVLP; assay: microbe, parasite or virus in culture; conditions: Zaire ebolavirus, Huh-7, read-out: IC50, Ebola trVLP infection
[6] = test system: VSV-G; format: cell-based, vesicular stomatitis virus
[7] = test system: VSVΔG-SARS2-S (pseudo-type VSV with SARS-CoV-2 spike protein); assay: microbe, parasite or virus in culture; format: cell-based; conditions: Vesicular stomatitis virus, Vero C1008, 20 h, read-out: IC50, VSVΔG-SARS2-S infection
[8] = test system: pseudo-typed VSV having a SARS-CoV spike protein (SARS-CoV-S); assay: microbe, parasite or virus in culture; format: cell-based; conditions: Vesicular stomatitis virus, Vero C1008, 20 h, read-out: IC50, infection with pseudo-typed VSV having SARS-CoV spike protein

CO[C@H]1/C=C/O[C@@]2(C)Oc3c(C)c(O)c4c(O)c(c(/C=N/N5CCN(C)CC5)c(O)c4c3C2=O)NC(=O)/C(C)=C\C=C\[C@H](C)[C@H](O)[C@@H](C)[C@@H](O)[C@@H](C)[C@H](OC(C)=O)[C@@H]1C [Rifampin, rifampin]
amount of the EGFP mRNA [1]: significantly and markedly reduced | antiviral activity against SARS-CoV-2 infection [2]: tended to reduce the infection rate of SARS-CoV-2, which was not significant | effect on virus: SARS-CoV-2 [2]: N.S. | Score (number of EGFP-positive cells, value subjected to correction between batches) [3]: 75.36 | effect on virus: Sendai virus [3]: + | IC50 [3]: 3.9 µM | antiviral activity against Ebola trVLP infection [4]: did not show significant antiviral activity | effect on virus: Ebola virus [4]: −

CCc1ccc(CCOc2ccc(CC3SC(=O)NC3=O)cc2)nc1 (stereo not drawn) [Pioglitazone, pioglitazone]
amount of the EGFP mRNA [1]: significantly and markedly reduced | antiviral activity against SARS-CoV-2 infection [2]: partially suppressed virus infection at a high concentration | effect on virus: SARS-CoV-2 [2]: + | Score (number of EGFP-positive cells, value subjected to correction between batches) [3]: 173.91 | effect on virus: Sendai virus [3]: + | IC50 [3]: 4.9 µM | antiviral activity against Ebola trVLP infection [4]: did not show significant antiviral activity | effect on virus: Ebola virus [4]: −

CC(c1cc2ccccc2s1)N(O)C(N)=O (stereo not drawn) [Zileuton, zileuton]
amount of the EGFP mRNA [1]: significantly and markedly reduced | antiviral activity against SARS-CoV-2 infection [2]: did not exhibit significant antiviral activity | effect on virus: SARS-CoV-2 [2]: − | Score (number of EGFP-positive cells, value subjected to correction between batches) [3]: 214.49 | effect on virus: Sendai virus [3]: + | IC50 [3]: 4.5 µM | antiviral activity against Ebola trVLP infection [4]: did not show significant antiviral activity | effect on virus: Ebola virus [4]: −

CS(=O)(=O)c1ccc(C2=C(c3ccccc3)C(=O)OC2)cc1 [Rofecoxib]
Score (number of EGFP-positive cells, value subjected to correction between batches) [3]: 202.89

CC/C(=C(\c1ccccc1)c1ccc(OCCN(C)C)cc1)c1ccccc1 [Tamoxifen, tamoxifen]
effect on virus: SARS-CoV-2 [2]: + | antiviral activity against Ebola trVLP infection [4]: inhibit the Ebola trVLP infection | effect on virus: Ebola virus [4]: +

O=C(c1ccc(OCCN2CCCCC2)cc1)c1c(-c2ccc(O)cc2)sc2cc(O)ccc12 [Raloxifene hydrochloride]
Score (number of EGFP-positive cells, value subjected to correction between batches) [3]: 57.97

O=C1CCc2ccc(OCCCCN3CCN(c4cccc(Cl)c4Cl)CC3)cc2N1 [Aripiprazole]
Score (number of EGFP-positive cells, value subjected to correction between batches) [3]: 86.95

CC(COc1ccccc1)N(CCCl)Cc1ccccc1 (stereo not drawn) [Phenoxybenzamine hydrochloride]
Score (number of EGFP-positive cells, value subjected to correction between batches) [3]: 162.31

CCC(CC)COC(=O)[C@H](C)N[P@](=O)(OC[C@H]1O[C@@](C#N)(c2ccc3c(N)ncnn23)[C@H](O)[C@@H]1O)Oc1ccccc1 [remdesivir]
amount of the EGFP mRNA [1]: substantially not detected | IC50 [2]: 0.89 µM | IC50 [3]: 0.077 µM | IC50 [5]: 0.12 µM

CCOC(=O)C1=C(C)NC(C)=C(C(=O)OC)C1c1cccc(Cl)c1Cl (stereo not drawn) [Felodipine]
Score (number of EGFP-positive cells, value subjected to correction between batches) [3]: 133.33

CCCCC[C@H](O)/C=C/[C@H]1[C@H](O)CC(=O)[C@@H]1C/C=C\CCCC(=O)O [Prostaglandin E2]
Score (number of EGFP-positive cells, value subjected to correction between batches) [3]: 208.69

Nc1cc(N2CCCCC2)nc(N)[n+]1[O-] [Minoxidil]
Score (number of EGFP-positive cells, value subjected to correction between batches) [3]: 226.08

COc1ccc(CN(CCN(C)C)c2ccccn2)cc1 [Pyrilamine maleate]
Score (number of EGFP-positive cells, value subjected to correction between batches) [3]: 185.50

CN(C)CCC=C1c2ccccc2CCc2ccccc21 [Amitriptyline hydrochloride]
Score (number of EGFP-positive cells, value subjected to correction between batches) [3]: 192.61

CC1=NS(=O)(=O)c2cc(Cl)ccc2N1 [Diazoxide]
Score (number of EGFP-positive cells, value subjected to correction between batches) [3]: 173.91

CC1=C(CC(=O)O)c2cc(F)ccc2/C1=C\c1ccc([S+](C)[O-])cc1 (stereo not drawn) [Sulindac]
Score (number of EGFP-positive cells, value subjected to correction between batches) [3]: 127.53

O=C(NCCO[N+](=O)[O-])c1cccnc1 [Nicorandil]
Score (number of EGFP-positive cells, value subjected to correction between batches) [3]: 185.50

CC(CCc1ccc(O)cc1)NCCc1ccc(O)c(O)c1 (stereo not drawn) [Dobutamine hydrochloride]
Score (number of EGFP-positive cells, value subjected to correction between batches) [3]: 69.56

CSc1ccc2c(c1)N(CCC1CCCCN1C)c1ccccc1S2 (stereo not drawn) [Thioridazine hydrochloride]
Score (number of EGFP-positive cells, value subjected to correction between batches) [3]: 217.78

O=c1[nH]c2ccccc2n1CCCN1CCC(n2c(=O)[nH]c3cc(Cl)ccc32)CC1 [Domperidone]
Score (number of EGFP-positive cells, value subjected to correction between batches) [3]: 139.13

COc1cc(C(=O)NS(=O)(=O)c2ccccc2C)ccc1Cc1cn(C)c2ccc(NC(=O)OC3CCCC3)cc12 [Zafirlukast]
Score (number of EGFP-positive cells, value subjected to correction between batches) [3]: 156.52

O=C(Nc1cccc2c(=O)cc(-c3nnn[nH]3)oc12)c1ccc(OCCCCc2ccccc2)cc1 [Pranlukast, pranlukast]
amount of the EGFP mRNA [1]: significantly and markedly reduced | antiviral activity against SARS-CoV-2 infection [2]: tended to reduce the infection rate of SARS-CoV-2, which was not significant | effect on virus: SARS-CoV-2 [2]: N.S. | Score (number of EGFP-positive cells, value subjected to correction between batches) [3]: 162.31 | effect on virus: Sendai virus [3]: + | IC50 [3]: 5 µM | antiviral activity against Ebola trVLP infection [4]: did not show significant antiviral activity | effect on virus: Ebola virus [4]: −

CNCCCC12CCC(c3ccccc31)c1ccccc12 [Maprotiline hydrochloride]
Score (number of EGFP-positive cells, value subjected to correction between batches) [3]: 191.30

CN(C)CCOc1ccc(/C(=C(/CCCl)c2ccccc2)c2ccccc2)cc1 [Toremifene, toremifene]
effect on virus: SARS-CoV-2 [2]: + | IC50 [2]: 10 µM | infection-inhibiting effect on VSV-G [6]: no infection-inhibiting effect was observed | antiviral activity against Ebola trVLP infection [4]: inhibit the Ebola trVLP infection | effect on virus: Ebola virus [4]: + | IC50 [7]: 5.3 µM | IC50 [8]: 7.3 µM

O=C(c1ccc(OCCN2CCCCC2)cc1)c1c(-c2ccc(O)cc2)sc2cc(O)ccc12 [Raloxifene, raloxifene]
amount of the EGFP mRNA [1]: significantly and markedly reduced | effect on virus: SARS-CoV-2 [2]: + | IC50 [2]: 7.1 µM | effect on virus: Sendai virus [3]: + | IC50 [3]: 4.3 µM | infection-inhibiting effect on VSV-G [6]: no infection-inhibiting effect was observed | IC50 [5]: 0.88 µM | effect on virus: Ebola virus [4]: + | infection-inhibiting activity versus cytotoxicity (cell viability) [4]: significant dissociation between the infection-inhibiting activity and the cytotoxicity | IC50 [7]: 3.9 µM | IC50 [8]: 4.1 µM

O=C(O)COCCN1CCN(C(c2ccccc2)c2ccc(Cl)cc2)CC1 (stereo not drawn) [Cetirizine dihydrochloride]
Score (number of EGFP-positive cells, value subjected to correction between batches) [3]: 202.89

CC(C)(C)[C@]1(O)CCN2Cc3cccc4c3[C@H](c3ccccc3CC4)[C@@H]2C1.Cl [(+)-Butaclamol hydrochloride]
Score (number of EGFP-positive cells, value subjected to correction between batches) [3]: 226.08

OCCOCCN1CCN(C2=Nc3ccccc3Sc3ccccc32)CC1 [Quetiapine fumarate]
Score (number of EGFP-positive cells, value subjected to correction between batches) [3]: 133.33

COc1ccc(Cl)cc1C(=O)NCCc1ccc(S(=O)(=O)NC(=O)NC2CCCCC2)cc1 [Glibenclamide]
Score (number of EGFP-positive cells, value subjected to correction between batches) [3]: 202.89

Ifenprodil tartrate
Score (number of EGFP-positive cells, value subjected to correction between batches) [3]: 214.49

CN(C)CCCN1c2ccccc2Sc2ccc(Cl)cc21 [Chlorpromazine hydrochloride]
Score (number of EGFP-positive cells, value subjected to correction between batches) [3]: 75.36

COc1ccccc1N1CCN(CC(O)COc2cccc3ccccc23)CC1 (stereo not drawn) [Naftopidil]
Score (number of EGFP-positive cells, value subjected to correction between batches) [3]: 214.49

CC(CN1c2ccccc2Sc2ccccc21)N(C)C (stereo not drawn) [Promethazine hydrochloride]
Score (number of EGFP-positive cells, value subjected to correction between batches) [3]: 231.88

CCN(CC)CCOc1ccc(/C(=C(/Cl)c2ccccc2)c2ccccc2)cc1 [Clomifene, clomifene]
effect on virus: SARS-CoV-2 [2]: + | infection-inhibiting effect on VSV-G [6]: no infection-inhibiting effect was observed | antiviral activity against Ebola trVLP infection [4]: inhibit the Ebola trVLP infection | effect on virus: Ebola virus [4]: +

Cc1ccc(-c2cc(C(F)(F)F)nn2-c2ccc(S(N)(=O)=O)cc2)cc1 [Celecoxib]
Score (number of EGFP-positive cells, value subjected to correction between batches) [3]: 208.69
